Where two headings read alike, the source gives them in different places.
What was measured:
Assay type in all cases: cell-based, human
[1] = test system: HTT; assay: Splicing RT-qPCR assay, HTT mRNA canonical junction (CJ) and alternative junction (AJ); conditions: for AC50: increase in AJ mRNA
Summary of the method: (§1)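 Splice switching is measured in A673 or K562 cells after 24 h compound exposure (maximum 10 uM, 3-fold steps). Canonical and alternative junction mRNA levels are quantified by RT-qPCR relative to housekeeper and DMSO.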

[2] = test system: MYB; assay: Splicing RT-qPCR assay, MYB mRNA canonical junction (CJ) and alternative junction (AJ); conditions: for AC50: increase in AJ mRNA
Summary of the method: as §1

[3] = test system: SMN2; assay: Splicing RT-qPCR panel, SMN2 canonical junction (CJ) mRNA; conditions: RT-qPCR panel, canonical junction mRNA, compound concentration having 50% response in CJ decrease, read-out: SMN2 IC50 (decrease in CJ mRNA levels)
Summary of the method: as §1

[4] = test system: Target C; assay: Splicing RT-qPCR panel, Target C canonical junction (CJ) mRNA; conditions: RT-qPCR panel, canonical junction mRNA, compound concentration having 50% response in CJ decrease, read-out: Target C IC50 (decrease in CJ mRNA levels)
Summary of the method: as §1

[5] = test system: MYB; assay: HiBiT protein abundance assay, MYB; conditions: Table 13A, modified K562 cells
Summary of the method: (§2)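 K562 cells with endogenous HiBiT-tagged target were treated 24 h at 37 °C with compound (10-point 3-fold dilution, top 10 μM final, DMSO ≤0.25%). Lytic LgBiT luminescence was normalized to unmodified K562 (baseline) and DMSO-treated tagged cells; IC50 interpolated at 50% from four-parameter logistic fit.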

[6] = test system: HTT; assay: HiBiT protein abundance assay, HTT; conditions: Table 13A, modified K562 cells
Summary of the method: as §2

[7] = test system: Target C; assay: HiBiT protein abundance assay, Target C; conditions: Table 13A, modified K562 cells
Summary of the method: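 HiBiT knock-in K562-derived cells, 10000 cells/well, were treated 24 h at 37 °C with a 10-point 3-fold dilution series (top 10 μM final, DMSO ≤0.25%). Lytic HiBiT luminescence was normalized to unmodified K562 and DMSO controls; IC50 was interpolated at 50% from a four-parameter logistic fit.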

[8] = Homo sapiens, 24 h, decrease in CJ mRNA, A673 or K562 cells, 24 hours treatment, RT-qPCR, read-out: HTT CJ IC50
[9] = Homo sapiens, 24 h, A673 or K562 cells, 24 hours treatment, RT-qPCR
[10] = Homo sapiens, RT-qPCR panel, canonical junction mRNA, compound concentration having 50% response in CJ decrease, read-out: HTT IC50 (decrease in CJ mRNA levels)
[11] = Homo sapiens, 24 h, decrease in CJ mRNA, A673 or K562 cells, 24 hours treatment, RT-qPCR, read-out: MYB CJ IC50
[12] = Homo sapiens, RT-qPCR panel, canonical junction mRNA, compound concentration having 50% response in CJ decrease, read-out: MYB IC50 (decrease in CJ mRNA levels)
[13] = RT-qPCR panel, canonical junction mRNA, compound concentration having 50% response in CJ decrease, read-out: HTT IC50 (decrease in CJ mRNA levels)
[14] = decrease in CJ mRNA, A673 or K562 cells, 24 hours treatment, RT-qPCR, read-out: HTT CJ IC50
[15] = RT-qPCR panel, canonical junction mRNA, compound concentration having 50% response in CJ decrease, read-out: MYB IC50 (decrease in CJ mRNA levels)
[16] = decrease in CJ mRNA, A673 or K562 cells, 24 hours treatment, RT-qPCR, read-out: MYB CJ IC50

SMILES	IC50 [1, 8] [µM]	AC50 [1, 9] [µM]	IC50 [1, 10] [µM]	IC50 [2, 11] [µM]	AC50 [2, 9] [µM]	IC50 [2, 12] [µM]	IC50 ([3]; Homo sapiens) [µM]	IC50 ([4]; Homo sapiens) [µM]	IC50 ([5]; Homo sapiens, K562, 24 h) [µM]	IC50 ([6]; Homo sapiens, K562, 24 h) [µM]	IC50 ([7]; Homo sapiens, K562, 24 h) [µM]	IC50 [1, 13] [µM]	IC50 [1, 14] [µM]	IC50 [2, 15] [µM]	IC50 [2, 16] [µM]	IC50 [3] [µM]	IC50 [4] [µM]	IC50 ([5]; 24 hours) [µM]	IC50 ([6]; 24 hours) [µM]	IC50 ([7]; 24 hours) [µM]
Cn1cc(-c2ccc(-c3ccc(OC4CC(C)(C)NC(C)(C)C4)nn3)c3[nH]ncc23)nn1 [Compound 325, 4-(1-methyl-1H-1,2,3-triazol-4-yl)-7-(6-((2,2,6,6-tetramethylpiperidin-4-yl)oxy)pyridazin-3-yl)-1H-indazole]	1 to 10	1 to 10	1 to 10	1 to 10	1 to 10	1 to 10	0.1 to 1	> 10	1 to 10	1 to 10	> 10	–	–	–	–	–	–	–	–	–
CN(c1ccc(-c2cc(F)c(-c3cnn(C)c3)c3cn[nH]c23)nn1)C1CC(C)(C)NC(C)(C)C1 [Compound 326, 6-[5-fluoro-4-(1-methylpyrazol-4-yl)-1H-indazol-7-yl]-N-methyl-N-(2,2,6,6-tetramethylpiperidin-4-yl)pyridazin-3-amine]	–	–	–	–	–	–	–	–	–	–	–	0.1 to 1	0.1 to 1	0.1 to 1	0.1 to 1	< 0.1	1 to 10	0.1 to 1	0.1 to 1	1 to 10
c1n[nH]cc1-c1ccc(-c2ccc(O[C@@H]3C[C@H]4CC[C@@H](C3)N4)nn2)c2cn[nH]c12 [Compound 328]	> 10	> 10	> 10	> 10	> 10	> 10	1 to 10	> 10	1 to 10	> 10	> 10	–	–	–	–	–	–	–	–	–
CN(c1ccc(-c2ccc(-c3cn[nH]c3)c3[nH]ncc23)nn1)[C@@H]1C[C@H]2CC[C@@H](C1)N2 [Compound 329]	> 10	> 10	> 10	> 10	> 10	> 10	1 to 10	> 10	> 10	> 10	> 10	–	–	–	–	–	–	–	–	–
CN(c1ccc(-c2ccc(-c3cnn(C)c(=O)c3)c3ncsc23)nn1)C1CC(C)(C)NC(C)(C)C1 [Compound 331, 2-methyl-5-(7-{6-[methyl(2,2,6,6-tetramethylpiperidin-4-yl)amino]pyridazin-3-yl}-1,3-benzothiazol-4-yl) pyridazin-3-one]	1 to 10	1 to 10	1 to 10	1 to 10	1 to 10	1 to 10	0.1 to 1	> 10	1 to 10	0.1 to 1	> 10	–	–	–	–	–	–	–	–	–
c1cnn(-c2ccc(-c3ccc(O[C@@H]4C[C@H]5CC[C@@H](C4)N5)nn3)c3scnc23)c1 [Compound 334]	0.1 to 1	1 to 10	0.1 to 1	> 10	1 to 10	> 10	0.1 to 1	> 10	0.1 to 1	0.1 to 1	1 to 10	–	–	–	–	–	–	–	–	–
CC1(C)CC(Oc2ccc(-c3ccc(-n4cccn4)c4ncsc34)nn2)CC(C)(C)N1 [Compound 335, 4-(pyrazol-1-yl)-7-{6-[(2,2,6,6-tetramethylpiperidin-4-yl)oxy]pyridazin-3-yl}-1,3-benzothiazole]	1 to 10	1 to 10	1 to 10	1 to 10	1 to 10	1 to 10	0.1 to 1	1 to 10	1 to 10	0.1 to 1	1 to 10	–	–	–	–	–	–	–	–	–
Cn1cc(-c2c(F)cc(-c3ccc(NC4CCNCC4)nn3)c3[nH]ncc23)cn1 [Compound 338]	1 to 10	1 to 10	1 to 10	1 to 10	1 to 10	1 to 10	0.1 to 1	> 10	1 to 10	1 to 10	1 to 10	–	–	–	–	–	–	–	–	–
Cc1ncc(-c2ccc(-c3ccc(N(C)C4CC(C)(C)NC(C)(C)C4)nn3)c3scnc23)o1 [Compound 342]	0.1 to 1	0.1 to 1	0.1 to 1	1 to 10	1 to 10	1 to 10	< 0.1	1 to 10	0.1 to 1	0.1 to 1	0.1 to 1	–	–	–	–	–	–	–	–	–
c1cnn(-c2ccc(-c3ccc(N[C@@H]4C[C@H]5CC[C@@H](C4)N5)nn3)c3scnc23)c1 [Compound 343]	–	0.1 to 1	< 0.1	0.1 to 1	0.1 to 1	0.1 to 1	< 0.1	0.1 to 1	0.1 to 1	< 0.1	0.1 to 1	–	–	–	–	–	–	–	–	–
CN(c1ccc(-c2ccc(-n3cccn3)c3ncsc23)nn1)[C@@H]1C[C@H]2CC[C@@H](C1)N2 [Compound 344]	–	0.1 to 1	< 0.1	0.1 to 1	0.1 to 1	0.1 to 1	< 0.1	0.1 to 1	0.1 to 1	< 0.1	0.1 to 1	–	–	–	–	–	–	–	–	–
CC(C)(C)NC1CCN(c2ccc(-c3ccc(-c4cn[nH]c4)c4ncsc34)nn2)C1 (centres unmarked) [Compound 345, N-tert-butyl-1-{6-[4-(1H-pyrazol-4-yl)-1,3-benzothiazol-7-yl]pyridazin-3-yl} pyrrolidin-3-amine]	–	–	–	–	–	–	–	–	–	–	–	1 to 10	1 to 10	1 to 10	1 to 10	0.1 to 1	1 to 10	1 to 10	0.1 to 1	1 to 10
c1cnn(-c2ccc(-c3ccc(N4CCC(NC5CC5)C4)nn3)c3scnc23)c1 (centres unmarked) [Compound 346, N-cyclopropyl-1-{6-[4-(pyrazol-1-yl)-1,3-benzothiazol-7-yl]pyridazin-3-yl}pyrrolidin-3-amine]	> 10	> 10	> 10	> 10	> 10	> 10	> 10	> 10	1 to 10	1 to 10	> 10	–	–	–	–	–	–	–	–	–
